Measured values reported in publication PMC11990662, “Synthesis and Evaluation of the Antiproliferative Activity of the Derivatives of 3,5-Diaryl-3,4-dihydro-2H-pyrrole-2-carboxylic Acids” (Molecules, 2025).

Experiments:
[1] = test system: HepG2 (hepatocellular carcinoma); experiment: MTT antiproliferative assay, HepG2; type: cell-based, human; conditions: 72 h
Protocol: (§1) Antiproliferative activity of some compounds was evaluated on cell cultures derived from MDA-MB-231 (triple negative human breast carcinoma). […] This finding allowed us to further investigate the antiproliferative activity of selected compounds on additional tumor cell lines. We studied the influence of the stereochemical orientation of the substituents at C2 and C3 in substituted 3,4-dihydro-2H-pyrrole-2-carbonitriles. The antiproliferative activity of single diastereomers of some nitriles 4 and the amide cis-6m were assessed on multiple human cancer cell lines via the MTT assay. For these experiments, the following human cell lines were used: MCF-7 (luminal type A breast carcinoma), MD-MBA-231, H1299 (non-small-cell lung carcinoma cells), A549 (lung alveolar adenocarcinoma), HeLa (cervical cancer), HepG2 (hepatocellular carcinoma), HT-29 (colorectal adenocarcinoma) and PC3 (prostate adenocarcinoma). As a model of normal tissue, we used MCF-10A (non-tumorigenic epithelial cells of mammary gland). Table 5 and Table 6 present the values of concentration that inhibits cell viability to 50% (IC50) and selectivity index (SI = IC50(MCF-10A)/IC50(tumor cell line)).
(§2) The antiproliferative activity testing was performed on cell cultures from several human cancer cell lines the MTT-dye reduction assay, described by Mosmann. Cell lines were obtained from the American Type Cultures Collection (ATCC, Manassas, VA, USA). In this article we used the following cell lines: MCF-10A (ATCC, CRL-10317™) Non-tumorigenic epithelial cells of mammary gland, MCF-7 (ATCC, HTB-22™) Luminal type A breast carcinoma, MDA-MB-231 (ATCC, HTB-26™) Triple negative breast carcinoma, H1299 (ATCC, CRL-5803™) Non-small-cell lung carcinoma, A549 (ATCC, CRM-CCL-185™) Llung alveolar adenocarcinoma, HeLa (ATCC, CCL-2™) Cervical cancer, Hep G2 (ATCC, HB-8065™) Hepatocellular carcinoma, HT-29 (ATCC, HTB-38™) Colorectal adenocarcinoma, PC-3 (ATCC, CRL-1435™) Prostate adenocarcinoma. The cells were cultured in a cell culture laboratory at the Institute of Experimental Morphology, Pathology and Anthropology with a Museum—Bulgarian Academy of Sciences. They were cultured in Dulbecco’s Modified Eagle’s medium, high glucose (DMEM 4.5 g/L glucose), supplied with 10% fetal bovine serum and antibiotics in usual concentrations in a humidified atmosphere with 5% CO2 at 37.5 °C. In the case of MCF-10A cells, epidermal growth factor, insulin and cholera toxin were added in concentrations corresponding to the cell bank instructions. Cells were plated at a density of 1 × 10^3 cells per well in a 96-well flat-bottomed microplates and allowed to adhere for 24 h before treatment with the test compounds, dissolved in DMSO, and further diluted in culture medium to the final concentrations. A concentration ranges from 5 µM to 4.1 mM was tested over an incubation period of 72 h. Cisplatin (Sigma-Aldrich) was used as a positive control in a concentration range 50 nM to 100 µM. All experiments were performed in triplicates. The MTT-formazan absorption was measured using a microplate reader (TECAN, Sunrise^TM, Groedig/Salzburg, Austria) at 570 nm. Antiproliferative activities were expressed as IC50 values (concentrations required for 50% inhibition of cell growth), calculated using non-linear regression analysis (GraphPad Prizm8 Software). The statistical analysis involved One-way ANOVA followed by Bonferroni’s post hoc test p < 0.05 was accepted as the lowest level of statistical significance.

[2] = test system: HT-29 (colorectal adenocarcinoma); experiment: MTT antiproliferative assay, HT-29; type: cell-based, human; conditions: HT-29, MTT, 72 h
Protocol: as §1, §2

[3] = test system: H1299 (non-small-cell lung carcinoma cells); experiment: MTT antiproliferative assay, H1299; type: cell-based, human
Protocol: as §1, §2

[4] = test system: PC3 (prostate adenocarcinoma); experiment: MTT antiproliferative assay, PC3; type: cell-based, human; conditions: 72 h
Protocol: as §1, §2

[5] = test system: MDA-MB-231 (triple negative human breast carcinoma); experiment: MTT antiproliferative assay, MDA-MB-231; type: cell-based; conditions: for IC50: MDA-MB-231, MTT, 72 h; for antiproliferative activity (in words): MDA-MB-231, preliminary experiments
Protocol: as §1, §2

[6] = test system: HeLa (cervical cancer); experiment: MTT antiproliferative assay, HeLa; type: cell-based, human; conditions: 72 h
Protocol: as §1, §2

[7] = test system: MCF-10A (non-tumorigenic epithelial cells of mammary gland); experiment: MTT antiproliferative assay, MCF-10A; type: cell-based, human; conditions: 72 h
Protocol: as §1, §2

[8] = test system: MCF-7 (luminal type A breast carcinoma); experiment: MTT antiproliferative assay, MCF-7; type: cell-based, human; conditions: MCF-7, MTT, 72 h
Protocol: as §1, §2

[9] = test system: A549 (lung alveolar adenocarcinoma); experiment: MTT antiproliferative assay, A549; type: cell-based, human; conditions: 72 h
Protocol: as §1, §2

| SMILES | IC50 ([1]; Homo sapiens) | IC50 ([2]; Homo sapiens) | IC50 ([3]; Homo sapiens, NCI-H1299, 72 h) | IC50 ([4]; Homo sapiens) | IC50 ([5]; Homo sapiens) | IC50 ([6]; Homo sapiens) | IC50 ([7]; Homo sapiens) | IC50 ([8]; Homo sapiens, MCF7) | IC50 ([9]; Homo sapiens) | also measured |
| --- | --- | --- | --- | --- | --- | --- | --- | --- | --- | --- |
| COc1ccc(C2=N[C@@H](C#N)[C@@H](c3ccccc3)C2)cc1 (racemic) [cis-4e] | 554 ± 34 µM | 308 ± 8 µM | 840 ± 43 µM | 478 ± 58 µM | > 3620 µM | 158 ± 6.5 µM | 427 ± 12 µM | 1770 ± 232 µM | 341 ± 26 µM |  |
| N#C[C@@H]1N=C(c2ccccc2)C[C@@H]1c1cccnc1 (racemic) [cis-4h] | 3000 ± 107 µM | 1640 ± 132 µM | 2980 ± 62 µM | 1920 ± 70 µM | > 4110 µM | 2220 ± 136 µM | 2280 ± 178 µM | 1380 ± 255 µM | 311 ± 19 µM |  |
| Cc1ccc(C2=N[C@@H](C#N)[C@@H](c3ccccc3)C2)cc1 (racemic) [cis-4k] | 235 ± 15 µM | 853 ± 46 µM | 205 ± 6 µM | 297 ± 25 µM | 2560 ± 107 µM | 169 ± 10 µM | 104 ± 6 µM | 374 ± 6 µM | 82.2 ± 5.8 µM |  |
| COc1cc(O)c(C2=N[C@@H](C#N)[C@@H](c3ccc(C)c(Cl)c3)C2)c(OC)c1 (racemic) [cis-4n] |  |  |  |  | 75.8 µM |  |  |  |  |  |
| COc1cc(O)c(C2=N[C@@H](C#N)[C@@H](c3ccc(C)c(Br)c3)C2)c(OC)c1 (racemic) [cis-4o] |  |  |  |  | 35.9 µM |  |  |  |  |  |
| COc1cc(O)c(C2=N[C@@H](C#N)[C@H](c3ccc(C)c(F)c3)C2)c(OC)c1 (racemic) [trans-4m] | 44.6 ± 2.8 µM | 28.1 ± 2 µM | 36.4 ± 2 µM | 44.3 ± 5.4 µM | 717 ± 73 µM | 1170 ± 42 µM | 79.3 ± 2.5 µM | 149 ± 12 µM | 32.2 ± 1.1 µM |  |
| COc1cc(O)c(C2=N[C@@H](C#N)[C@H](c3ccc(C)c(Cl)c3)C2)c(OC)c1 (racemic) [trans-4n] |  |  |  |  |  |  |  |  |  | antiproliferative activity (in words) [5]: very poor activity |
| COc1cc(O)c(C2=N[C@@H](C#N)[C@H](c3ccc(C)c(Br)c3)C2)c(OC)c1 (racemic) [trans-4o] |  |  |  |  |  |  |  |  |  | antiproliferative activity (in words) [5]: very poor activity |
| COc1cc(O)c(C2=N[C@@H](C#N)[C@H](c3ccc(C)c(F)c3)C2)c(OC)c1 (relative stereo) [cis-4m, rel-(2R,3S)-3-(3-fluoro-4-methylphenyl)-5-(2-hydroxy-4,6-dimethoxyphenyl)-3,4-dihydro-2H-pyrrole-2-carbonitrile] |  |  |  |  |  |  |  |  |  | IC50 [1]: 117 ± 4.8 µM; IC50 [2]: 19.6 ± 1.8 µM; IC50 ([3]; 72 h): 25.4 ± 2.3 µM; IC50 [4]: 115 ± 4.8 µM; IC50 [5]: 16 ± 0.7 µM; IC50 [6]: 224 ± 15 µM; IC50 [7]: 170 ± 12 µM; IC50 [8]: 185 ± 26 µM; IC50 [9]: 97.6 ± 13 µM |
| Cc1ccc(C2=N[C@@H](C#N)[C@H](c3ccccc3)C2)cc1 (relative stereo) [trans-4k, rel-(2R,3S)-5-(4-methylphenyl)-3-phenyl-3,4-dihydro-2H-pyrrole-2-carbonitrile] | 159 ± 4.6 µM | 136 ± 7.7 µM | 354 ± 15 µM | 121 ± 13 µM | 313 ± 20 µM | 84.1 ± 2.3 µM | 182 ± 5.8 µM | 568 ± 57 µM | 11.7 ± 0.8 µM |  |
| N.N.[Cl][Pt][Cl] [Cisplatin, reference compound] |  |  |  |  |  |  |  |  |  | IC50 [1]: 19.1 ± 0.4 µM; IC50 [2]: 8.2 ± 0.3 µM; IC50 ([3]; 72 h): 5 ± 0.9 µM; IC50 [4]: 3.4 ± 0.5 µM; IC50 [5]: 1.8 ± 0.1 µM; IC50 [6]: 19.6 ± 3.2 µM; IC50 [7]: 23.2 ± 1.4 µM; IC50 [8]: 45.8 ± 3.2 µM; IC50 [9]: 38.6 ± 4.7 µM |
| COc1cc(O)c(C2=N[C@@H](C(N)=O)[C@@H](c3ccc(C)c(F)c3)C2)c(OC)c1 [cis-6m] | 117 ± 6.2 µM | 64.3 ± 4.8 µM | 1880 ± 51 µM | 125 ± 7.6 µM | 1990 ± 40 µM | 1180 ± 37 µM | 429 ± 28 µM | 923 ± 37 µM | 136 ± 5.4 µM |  |
